In brackets after ≈: the same amount, converted by molar mass.
Legend:
[1] = surface in contact with AMB; cited from earlier work
physchem = type: physicochemical; conditions: 22 °C, organic solvent or mixture, thermodynamic from solid
Description: Natamycin solubility was determined in several individual vehicles (see Table I). Briefly, a known amount of the drug, as a powder (different lots of purified drug were obtained from Gist-Brocades N.V., Netherlands, and from Sigma Chemical Company, St Louis, Mo.), was equilibrated in the respective solvent at RT (22° C.) over 5 min to 4 hours. An aliquot was then removed and diluted in MeOH prior to HPLC at predetermined times. Based on the Natamycin solubility in these particular vehicles, the inventors attempted to enhance the solubility by mixing different solvents according to the principle of cosolvency (Spiegel and Noseworthy, 1963; Yalkowsky and Roseman, 1981). Several different solvent systems were evaluated relative to the above estimates of necessary solubility to arrive at a clinically relevant optimal stock formulation. […] The “final solvent” is preferably one of the commonly available ointment bases, such as petroleum jelly, cocoa butter, Aquaphor™, all of which are readily available and commonly used for topical administration, either for moisturizing purpose or for dissolving various chemically active compounds.
Solubility Studies. […] Samples of 1 ml were taken at various time intervals, and filtered through a 0.45 μm PTFE™ membrane filter fitted to a syringe assembly (Whatman Inc.), and after appropriate dilution, the Natamycin concentration was determined by HPLC.

[2] = type: physicochemical
Description: Stability of the various Natamycin formulations. To study the physical and chemical stability of the various parenteral formulations, three sets of studies were performed: • (a) Natamycin was dissolved at a concentration of 100-300 mg/ml in HAc (“stock solution”) and incubated at 4° C., at 22° C. and at 40° C. The drug concentration was analyzed by HPLC in samples taken immediately after solubilization and after gradually increasing time intervals of up to 48 hours. • (b) The Natamycin-HAc stock solution was diluted with PEG/water (1:1:1, v:v:v, HAc:PEG:water), or PG/DMSO (1:1:1, v:v:v), or PG/DMSO/PEG (1:1:1:1, v:v:v:v), or aqueous lipid emulsion (1:10 and 1:100, v:v, HAc:Intralipid™), to yield Natamycin concentrations ranging from 1-50 mg/ml. • (c) The HAc-Natamycin mixture was diluted in NS or 5% dextrose to a drug concentration of 1 mg/ml. (d) The HAc-Natamycin mixture was blended with DMSO and Intralipid™, or directly in Intralipid™.
The various formulations were analyzed by HPLC immediately after mixing, then hourly for 8 hours, and then at gradually increasing time intervals up to several weeks, depending on the rate of degradation in the respective solvent system.
The temperature-dependent stability of solubilized Natamycin in the different solvent systems was studied as follows: The drug was dissolved in HAc at 100 mg/ml, and different aliquots were stored at 4° C., at 22° C., and at 40° C. Immediately after solubilization and at various intervals up to 48 hours later, aliquots from the different samples were analyzed by HPLC. The drug samples stored at 4° C. and at 22° C. degraded slower than those stored at higher temperatures: at 40° C. the Natamycin started degrading within 1 hour after the start of incubation, and at RT there was a loss of 5-10% in the first 4 hours.

[3] = tested on: tested strains of Candida spp.; experiment: Antifungal sensitivity (MIC); type: cell-based; conditions: all tested strains of Candida spp.
Description: (§1) Methodology. The antifungal activity of Natamycin was compared with that of amphotericin B utilizing a previously described assay (Anaissie et al., 1991). Briefly, serial dilutions of Natamycin and AMB were mixed in RPMI growth medium with L-glutamine and MOPS-buffer, pH 7.0 (Sigma Chemical Co., St. Louis, Mo.). The different strains of Candida, Aspergillus and Fusarium spp. were then added to the dishes. After incubation at 35° C. for 48 to 72 hours the plates were evaluated for fungal proliferation. The used fungal strains were obtained from the ATCC or isolated from patients, primarily at the MD Anderson Cancer Center. The Natamycin concentrations in the used solutions were assayed with HPLC to assure the highest possible reproducibility of the drug concentrations.

[4] = tested on: tested strains of Fusarium; experiment: Antifungal sensitivity (MIC); type: cell-based; conditions: all tested strains of Fusarium
Description: as §1

[5] = tested on: Aspergillus strains, except for A. flavus; experiment: Antifungal sensitivity (MIC); type: cell-based; conditions: all Aspergillus strains except A. flavus
Description: as §1

A. flavus = experiment: Antifungal sensitivity (MIC); type: cell-based; conditions: Aspergillus flavus; the tested A. flavus
Description: as §1

Structure (SMILES)	inflammation of the mucosal surface, share of treated subjects [1]	solubility thermodynamic (physchem)	loss of drug (degradation) ([2]; 100 mg/ml)	time to start of degradation ([2]; 100 mg/ml)	time until degradation apparent ([2]; 100 mg/ml)	time stable (by HPLC) ([2]; HAc and DMSO primary solvent, Intralipid, lyophilized, reconstituted to 10 mg/ml with distilled water, RT)	time stable ([2]; HAc-Natamycin stock diluted with 20% Intralipid to 10-50 mg/ml)	MIC (sensitive in the range) [3]	MIC (sensitive in the range) [4]	MIC [5]	MIC (A. flavus)
C[C@@H]1[C@H](O)[C@@H](C)/C=C/C=C/C=C/C=C/C=C/C=C/C=C/[C@H](O[C@@H]2O[C@H](C)[C@@H](O)[C@H](N)[C@@H]2O)C[C@@H]2O[C@](O)(C[C@@H](O)C[C@@H](O)[C@H](O)CC[C@@H](O)C[C@@H](O)CC(=O)O[C@H]1C)C[C@H](O)[C@H]2C(=O)O [AMB, Amphotericin B]	> 75%	–	–	–	–	–	–	–	–	–	–
C[C@@H]1C/C=C/C=C/C=C/C=C/[C@H](O[C@@H]2O[C@H](C)[C@@H](O)[C@H](N)[C@@H]2O)C[C@@H]2O[C@](O)(C[C@@H](O)C[C@H]3O[C@@H]3/C=C/C(=O)O1)C[C@H](O)[C@H]2C(=O)O [Natamycin, Pimaricin]	–	> 100 mg/mL	5-10%	≤ 1 h	8 to 12 h	more than 24 hours	more than 6 weeks	2 to 4 µg/mL	2 to 4 µg/mL	2 to 4 µg/mL (≈ 3 to 6.01 µM)	16 µg/mL (≈ 24 µM)

— patent US6844004B2, “Topical formulations of natamycin/pimaricin” (Board of Regents, The University of Texas System, priority 1997, dated 2005)
